From patent US20040109845A1, “Method for inhibiting articular cartilage matrix calcification” (priority 2001, published 2004) come the findings set out here.

“Also recorded” adds a separate entry of the source.

For the test, the system named is TGase activity (tTGase and Factor XIIIa) in meniscal cells. The test is described as follows: TGase activity in cultured knee meniscal cells (BP incorporation into N,N-dimethylcasein). Type of test: cell-based, human. To be noted: monolayer culture, 48-72 hrs; IL-1β, TGFβ, TNFα 10 ng/ml; Noc-12 2.5-25 μM; Sin-1 1-10 μM. As to the method:
Meniscal cells were maintained in DMEM high glucose and supplemented with 10% FCS, 1% L-glutamine, 100 units/ml Penicillin and 50 μg/ml Streptomycin (Omega Scientific, Tarzana, Calif.) and cultured at 37° C. with 5% CO2. In monolayer cell culture studies involving stimulation by TGFE[…] or IL-1, the cells were placed in DMEM high glucose containing 1% FCS, 1% L-glutamine, 100 units/ml Penicillin and 50 μg/ml Streptomycin. In all other studies, the cells were cultured in complete medium (as described above). Only primary or first passage meniscal cells were studied.
TGase activity was measured by modifications to a previously described method (35). Specifically, we coated 96 well ImmunoModule plates (Nunc, Rochester, N.Y.) with 200 μl of 20 mg/ml N,N-dimethylcasein for 1 hr at 23° C. The N,N-dimethylcasein was removed and nonspecific protein binding was blocked by adding 3% BSA in 100 mM Tris, pH 8.5, 150 mM NaCl, 0.05% Tween-20 (TBST) to each well for an additional 1 hr at 23° C. Then, aliquots of 5 μg of total cellular protein from meniscal or TC28 cells that had been lysed and sonicated (in 5 mM Tris HCl, 0.25 M sucrose, 0.2 mM MgSO4, 2 mM DTT, 0.4 mM PMSF, 0.4% Triton X100, pH 7.5), were added to the plate in triplicate. To measure TGase in extracts of whole menisci, 50 mg dry weight of tissue from the central zone of each medial meniscus was used as the source (after solubilization and sonication) for aliquots of 5 μg of soluble protein. Fifty μl of solution A (100 mM Tris, pH 8.5 and 20 mM CaCl2) was added to all samples for TGase assay, followed by the addition of 50 μl of solution B (100 mM Tris, pH 8.5, 40 mM DTT and freshly added 2 mM 5-(Biotinamido) pentylamine (BP)). The plates were incubated for 1 hr at 37° C. The wells were washed once with TBST containing 1 mM EDTA and then three times with TBST. One hundred μl of a 1:500 dilution of streptavidin-AP in 3% BSA/TBST was added to each well for 1 hr at 23° C. The wells were washed twice with TBST, and 200 μl of solution C (100 mM Tris, pH 9.8, mM NaCl, 5 mM MgCl2, 1 mg/ml of freshly added p-nitrophenylphosphate) was added to each well. Readings at OD410 were taken over 15 minutes. Purified guinea pig liver TGase (Sigma) was used to prepare a standard curve. TGase activity was designated as the amount of BP incorporated into casein (per μg cellular DNA, determined chromogenically following precipitation in perchlorate (28), or, where indicated, per μg protein, determined as previously described (28)).
To directly induce expression of each TGase in meniscal cells, 5×10^5 primary cells were plated in 60 mm dishes and allowed to adhere overnight. We modified (28) the manufacturer's protocol for the Lipofectamine Plus kit (Life Technologies, Grand Island, N.Y.). To optimize the transfection of meniscal cells, we added 2.0 ml of serum-free DMEM/F12 containing 0.00015% digitonin to washed cells and incubated for 3 min at 23° C. Then, media was removed, and cells transfected at 37° C. for 7 hrs, followed by removal of the media and addition of complete DMEM high glucose medium. Transfection of each TGase into TC28 cells was done by the same procedure, with the exception that the digitonin permeabilization step was omitted.

As to `CCNCCN(CC)N(O)N=O` [Noc-12, reference compound], the “Induction of TGase activity in cultured normal knee meniscal cells” value (shortened to “Induction of TGase activity”) was “shared the ability of II-1 to induce TGase activity”.

With `[NH-]c1c[n+](N2CCOCC2)no1` [Sin-1, reference compound], the “Induction of TGase activity” value is “shared the ability of II-1 to induce TGase activity”.

Regarding TNFα, the “Induction of TGase activity” value is on record as “stimulated increased TGase activity; also recorded: induce TGase activity”.
